According to ChEMBL document CHEMBL1126815, “Synthesis and squalene synthetase inhibitory activity of tripotassium 1-methyl-1-[(N-benzyl-N-farnesyl)aminoethylphosphinato]ethylphosphonate as a tethered analog of N-benzyl-N-farnesylamine-inorganic pyrophosphate ion pair” (Bioorg Med Chem Lett, 1993):

Molecular target: T1, Squalene synthase (Rattus norvegicus, UniProt Q02769)
T1 sequence (Q02769 whole entry): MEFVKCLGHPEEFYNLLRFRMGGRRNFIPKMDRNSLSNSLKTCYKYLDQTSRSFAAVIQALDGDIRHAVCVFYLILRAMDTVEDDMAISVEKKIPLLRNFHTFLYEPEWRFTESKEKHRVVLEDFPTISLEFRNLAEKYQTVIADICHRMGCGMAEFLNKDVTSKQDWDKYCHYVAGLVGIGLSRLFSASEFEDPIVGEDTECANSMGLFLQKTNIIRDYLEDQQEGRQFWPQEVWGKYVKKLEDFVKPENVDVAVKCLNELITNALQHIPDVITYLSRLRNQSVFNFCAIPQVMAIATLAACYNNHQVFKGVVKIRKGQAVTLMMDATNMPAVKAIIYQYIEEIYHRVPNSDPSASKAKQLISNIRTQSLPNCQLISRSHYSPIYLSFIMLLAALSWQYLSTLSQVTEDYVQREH
Test: Tested for the squalene synthetase inhibitory activity in rat liver microsomal assay
Format: microsomes

| IC50 | SMILES |
| --- | --- |
| 20 nM | CC(C)=CCC/C(C)=C/CC/C(C)=C/CN(CCP(=O)(O)C(C)(C)P(=O)(O)O)Cc1ccccc1 |
| 10 nM | CC(C)=CCC/C(C)=C/CC/C(C)=C/CNCc1ccccc1.O=P(O)(O)OP(=O)(O)O |
